Data from patent publication US8664289B2, “Dye and coloring photosensitive composition” (Adeka Corporation, priority 2010, dated 2014).

Tests used:
Assay type in all cases: physicochemical
Solubility in PGMEA = settings: concentration when PGMEA was added dropwise to 0.1 g of the compound under stirring and was dissolved completely
Experimental: (§1) That the obtained solid was an intended product was confirmed by ^1H-NMR and IR. Furthermore, the solubility of the obtained compound was measured. The solubility was a concentration when PGMEA was added dropwise to 0.1 g of the compound under stirring and was dissolved completely. The results thereof are shown in [Table 1] to [Table 4].
as §1, with “added” for “added dropwise”, “while” for “under”, “4]” for “4].”

[1] = Evaluation of absorption wavelength property in CHCl3 solution; parameters: ε: unit not given here; settings: for ε: molar absorption coefficient
Text: The absorption wavelength properties of Compounds Nos. 1 to 7, 16, 26, 43, 52 to 62, 65, 66, 69, 70 and 94 to 102 and Comparative Compounds Nos. 1 and 2 obtained above were each evaluated in a CHCl3 solution. The results are shown in [Table 5].

[2] = Evaluation of heat resistance by TG-DTA; settings: temperature at 10% weight loss
Experimental: Compounds Nos. 1 to 7, 16, 26, 43, 52 to 62, 65, 66, 69, 70 and 94 to 102 and Comparative Compounds Nos. 1 and 2 obtained above were analyzed by TG-DTA, and the melting points and temperatures at 10% weight loss were measured. The results are shown in [Table 6].

[3] = Heat resistance of exposed coating film of coloring alkali-developable photosensitive composition; settings: for Relative intensity After exposure: coating film after exposure (150 mJ/cm^2), before heating; for λmax: coating film of composition containing the compound, on glass; for Relative intensity 230° C., 30 min: exposed coating film after 230° C.
Text: 30.33 g of ACA Z250 (manufactured by Daicel Cytec Company Ltd.) and 11.04 g of ARONIX M-450 (manufactured by Toagosei Co., Ltd.) as the component (B), 1.93 g of IRGACURE 907 (manufactured by BASF) as the component (C), 36.60 g of PGMEA and 20.08 g of cyclohexanone as the component (E), as well as 0.01 g of FZ2122 (manufactured by Dow Corning Toray Co., Ltd.) as other component were mixed and stirred until insoluble components were diminished to give Alkali-developable photosensitive composition No. 1.
1.90 g of dimethylacetamide was added to 0.10 g of Compound No. 1 obtained above as the component (A) and dissolved under stirring.
5.0 g of Alkali-developable photosensitive composition No. 1 obtained in Step 1 and 1.0 g of Dye liquid No. 1 obtained in Step 2 were mixed and stirred to homogeneous to give Coloring alkali-developable photosensitive composition No. 1 of the present invention.
Coloring alkali-developable photosensitive compositions Nos. 2 to 20 were obtained in a similar manner to that in Example 2-1, except that Compound No. 1 as the component (A) in Step 2 of Example 2-1 was changed to Compound No. 2, 3, 5, 6, 16, 53, 56, 57, 59, 60, 65, 66, 94 or 96 to 101 obtained above.
Comparative coloring alkali-developable photosensitive compositions Nos. 1 and 2 were obtained in a similar manner to that in Example 2-1, except that Compound No. 1 as the component (A) in Step 2 of Example 2-1 was changed to Comparative Compound No. 1 or 2.
The coloring alkali-developable photosensitive compositions obtained in Example 2 were each applied to a glass basal plate under a condition of 410 rpm×7 sec and dried (90° C., 90 sec) on a hot plate. The obtained coating film was exposed (150 mJ/cm^2) by using an ultrahigh pressure mercury lamp. The heat resistance of the exposed coating film was investigated under conditions of 180° C.×60 min and 230° C.×30 min. The results are shown in [Table 7].
Using the coloring alkali-developable photosensitive compositions obtained in Examples 2-2 to 2-20 and Comparative Examples 2-1 and 2-2, heat resistance was investigated in a similar manner to that in Evaluation Example 3. The results are shown in [Table 7].

Row | SMILES | Solubility (PGMEA) (Solubility in PGMEA) | λmax [1] | ε [1] | 10% weight loss [2] | Relative intensity After exposure [3] | λmax [3] | Relative intensity 230° C., 30 min [3]
1 | CCN(CC)c1ccc(/C=C(\C#N)C(=O)OCC(C)(COC(=O)/C(C#N)=C/c2ccc(N(C)CCO)cc2)COC(=O)/C(C#N)=C/c2ccc(N(CC)CC)cc2)cc1 (centres unmarked) [Compound No. 100] | 6.0 wt % | 434 nm | 147000 | 330 °C | 100 | 436 nm | 99.7
2 | CC(COC(=O)/C(C#N)=C/c1ccc(N(Cc2ccccc2)Cc2ccccc2)cc1)(COC(=O)/C(C#N)=C/c1ccc(N(Cc2ccccc2)Cc2ccccc2)cc1)COC(=O)/C(C#N)=C/c1ccc(N(Cc2ccccc2)Cc2ccccc2)cc1 [Compound No. 101] | 10.0 wt % | 425 nm | 153000 | 336 °C | 100 | 426 nm | 99.4
